How the values were obtained:
[1] = Moisture uptake, modified Ph. Eur. 5.11 hygroscopicity method; assay type: physicochemical; details: mass increase during 24h storage over saturated ammonium sulfate solution, 25°C, about 100 mg
Description: It determines the mass increase (% (m/mo)) during a 24h storage period over a saturated ammonium sulfate solution.

[2] = Moisture uptake over saturated K2SO4 solution at about 100% relative humidity; details: about 25°C, amorphous except for CaCl2
[3] = Disintegration and dissolution time of lyophilisates, adjusted Ph. Eur. 7.4 oral lyophilisates method; assay type: physicochemical; details: lyophilisate about 1 mg from 12.5 % (m/V) solution, 300 µL TRIS buffer pH 7.4, about 22°C, no stirring
Description: Disintegration of substances described in Examples 5 and 6 were determined according to the method described in the European Pharmacopoeia 7.4 in monograph "tablets" section "oral lyophilisates". The disintegration time is acceptable if the oral lyophilisate disintegrates within 3 minutes in 200mL of "purified water R" at temperatures between 15°C and 25°C. Herein, disintegration is the loss of the overall structure, whereas dissolution means that the compound is completely dissolved.
This method was adjusted for the small volume lyophilisates which were used here (∼10 µL initial solution which corresponds to a lyophilysate mass of about 1 mg). Therefore the lyophilized product was added to 300 µL of TRIS buffer (adjusted pH 7.4 at 22°C) without any additional manipulation, e.g. shaking or stirring. In addition to the disintegration time the time until the whole product was completely dissolved, i.e. no visible particles detectable, has been determined at about 22°C (22.1 - 22.3 °C during the experiment).
. It was not possible to lyophilize pure amorphous calcium lactate due to rapid solidification and partially crystallization of the solution, which contained also 12.5%(m/V) amorphous calcium lactate. Table 9: Disintegration time and dissolution time for substances

[4] = Glass transition of the maximally frozen system Tg' by differential scanning calorimetry; details: solutions contained 12.5% (m/V) of the respective amorphous solid
Description: Further, the temperature Tg' is the glass transition temperature of the maximally frozen system, i.e. the glass transition of the amorphous phase within an ice matrix (from ultrapure water).

[5] = Solubility, Ph. Eur. 5.11 procedure in TRIS buffer
Text: Table 3: Categorization of solubility according to Ph. Eur. 7.4

[6] = Hygroscopicity measurement by mass increase in a glove box at relative air humidity > 50%; assay type: physicochemical; details: 1.0g sample, 22.5°C to […], 96 hours, referring to the initial mass
Description: The hygroscopicity of compounds was measured by weighing (Mettler AT261 "Delta Range" balance) in the samples at the start of the experiment and at certain time points within a total period of 96 hours. The increase in mass (in %) was calculated for each sample as: (mt -mt0)/(mt0) × 100% [formula] • wherein mt is the mass of the sample at a certain time t and Mt0 is the mass of the sample at the start when placing it in the glove box.

citrated whole blood = experiment: ROTEM ex-tem assay, recalcification with freeze-dried pellets; details: freeze-dried CaCl2 pellets
Description: The compatibility with coagulation measurement was determined using the ROTEM® device. The measurement was conducted according to the respective automated ROTEM® sequence. 300 µL citrated whole blood (obtained from healthy individuals) were used for each measurement. The pipetting of the respective liquid reagents was performed according to the sequence or was skipped for the solid reagents. […] Coagulation was initiated using the tissue factor based ex-tem® reagent.
The ex-tem® assay was selected because of the tissue factor coagulation activation and the resulting short clotting times (CT). Therefore it was possible to investigate whether the freeze-dried products containing a high amount of solid would dissolve rapidly enough to assure complete recalcification and clotting times within a normal range.

[7] = Glass transition temperature Tg by differential scanning calorimetry; assay type: physicochemical
Description: Hydranal® Coulomat AG Oven served as a reagent. About 10 mg of the substance was used for an expected residual moisture between 5 - 10%(m/m) and about 50 - 80 mg were used for an expected moisture content […]. […]
Primary drying was carried out at Tinlet = -30° C / 30mtorr for 15h followed by secondary drying at 40°C / 30mtorr for 6h with a heating rate between the two steps of 0.3 °C/min. The glass transition temperature as well as the residual moisture content were measured after freeze drying for the respective substance.

Compound	Ph. Eur. method Hygroscopicity [1]	Uptake rate during 3h storage at 99.9 % rel. humidity (sat. K2SO4 sol.) [2]	Disintegration time [3] [s]	Dissolution time (mean ± sdv) [3] [s]	Glass transition of the frozen system (Tg') [4] [°C]	further results
CC(O)C(=O)[O-].CC(O)C(=O)[O-].[Ca+2] (stereo not shown) [CL, calcium lactate]	30.28 %(m/mo	0.384 ratio compared to CaCl2				
O=C([O-])[C@H](O)[C@@H](O)[C@H](O[C@@H]1O[C@H](CO)[C@H](O)[C@H](O)[C@H]1O)[C@H](O)CO.O=C([O-])[C@H](O)[C@@H](O)[C@H](O[C@@H]1O[C@H](CO)[C@H](O)[C@H](O)[C@H]1O)[C@H](O)CO.[Ca+2] [CLB, calcium lactobionate]	21.08 %(m/mo	0.226 ratio compared to CaCl2	<1	13 ± 2	-13.27	Ph. Eur. method Solubility ([5]; 100mg substance, TRIS buffer isotonic pH = 7.4, 25.0°C, visual after 1 min. mixing and 15 min. storage): very soluble; Calculated solubility Cs ([5]; category limits of table 3 divided by Mr, 15 min): Cs ≥ 1.325 mol/L
[Ca+2].[Cl-].[Cl-] [CaCl2, calcium chloride, reference compound]	CaCl2 = 113.9%(m/mo	1.000 ratio compared to CaCl2				mass increase [6]: over 20%; behaviour of freeze-dried pellets (hygroscopicity) (citrated whole blood): liquefied rapidly
Calcium lacto ascorbate [CLA]			<1	14 ± 3	-20.18	
calcium ascorbate [reference compound]	31.77 %(m/mo		<1	11 ± 1	-24.61	
calcium ascorbate gluconate [CAG]	19.65 %(m/mo		<1	11 ± 2	-15.70	
calcium ascorbate lactobionate [CALB]			<1	12 ± 1	-13.28	
calcium gluconate [CG, reference compound]	20.16 %(m/mo	0.214 ratio compared to CaCl2	<1	9 ± 1	-11.08	
calcium lacto gluconate [CLG ME]		0.204 ratio compared to CaCl2	<1	19 ± 6	-11.74	
calcium lacto lactobionate [CLLB]	19.18 %(m/mo	0.357 ratio compared to CaCl2	<1	18 ± 4	-15.58	Tg ([7]; CLLB ratio 0, moisture content 14 %(m/m)): 34,39 °C; Tg ([7]; CLLB ratio 0, moisture content 5,196 %(m/m)): 112,86 °C; Tg ([7]; CLLB ratio 0, moisture content 10,151 %(m/m)): 58,45 °C; Tg ([7]; CLLB ratio 34.82, moisture content 0 %(m/m)): 143.05 °C; Tg ([7]; CLLB ratio 34.82, moisture content 4.44 %(m/m)): 104.03 °C; Tg ([7]; CLLB ratio 34.82, moisture content 7.26 %(m/m)): 73.08 °C; Tg ([7]; CLLB ratio 34.82, moisture content 9.86 %(m/m)): 56.42 °C; Tg ([7]; CLLB ratio 34.82, moisture content 11.82 %(m/m)): 47.945 °C; Tg ([7]; CLLB ratio 34.82, moisture content 14.60 %(m/m)): 32.13 °C; Tg ([7]; CLLB ratio 82.77, moisture content 0 %(m/m)): 148.05 °C; Tg ([7]; CLLB ratio 82.77, moisture content 5.19 %(m/m)): 96.38 °C; Tg ([7]; CLLB ratio 82.77, moisture content 6.35 %(m/m)): 79.84 °C; Tg ([7]; CLLB ratio 82.77, moisture content 6.93 %(m/m)): 73.34 °C; Tg ([7]; CLLB ratio 82.77, moisture content 8.00 %(m/m)): 67.39 °C; Tg ([7]; CLLB ratio 82.77, moisture content 14.49 %(m/m)): 34.39 °C; Tg ([7]; CLLB ratio %(m(CL)/m(CLB)) = 100, moisture content 0 %(m/m) (annealed)): 140.08 °C; Tg ([7]; CLLB ratio %(m(CL)/m(CLB)) = 100, moisture content 5.10 %(m/m)): 82.46 °C; Tg ([7]; CLLB ratio %(m(CL)/m(CLB)) = 100, moisture content 8.20 %(m/m)): 64.81 °C; Tg ([7]; CLLB ratio %(m(CL)/m(CLB)) = 100, moisture content 13.87 %(m/m)): 30.65 °C
calcium lacto pantothenate [CLP]			<1	8 ± 1	-23.02	
calcium lactobionate pantothenate [CLBP]			<1	10 ± 2	-18.84	
calcium pantothenate [CP, reference compound]	22.02 %(m/mo		<1	6 ± 1	-25.28	
